# Earlier results, collected in US20260216065A1, “PHARMACEUTICAL COMPOSITIONS FOR NASAL DELIVERY” (Therakind Limited, priority 2023, published 2026).
# Conditions: room temperature (25° C.)
smiles,measurement,value
"Cc1nccn1CC1CCc2c(c3ccccc3n2C)C1=O (racemic) [ondansetron, (RS)-9-Methyl-3-[(2-methyl-1H-imidazol-1-yl)methyl]-2,3-dihydro-1H-carbazol-4(9H)-one]",time for which nasal spray solutions are stable,48 h
